Experimental findings from publication PMC3436176 (The Journal of Biological Chemistry, 2012) are described below.

The test system of assay [1] is GPVI on platelets. Description: Flow cytometric GPVI quantitation. The format is cell-based, human. Particulars: dimers versus resting platelets. Background: Flow cytometry measures light scatter and fluorescence of single cells or particles in a stream.
The test system of assay [2] is GPVI dimer on washed platelets. Description: Time and agonist concentration dependence of dimer increase. The format is cell-based, human.
Assay [3] has as its target T1, GPVI-Fc2 (GPVI dimer) (Homo sapiens, UniProt Q9HCN6).
T1 sequence (Q9HCN6 21-214 limits assumed): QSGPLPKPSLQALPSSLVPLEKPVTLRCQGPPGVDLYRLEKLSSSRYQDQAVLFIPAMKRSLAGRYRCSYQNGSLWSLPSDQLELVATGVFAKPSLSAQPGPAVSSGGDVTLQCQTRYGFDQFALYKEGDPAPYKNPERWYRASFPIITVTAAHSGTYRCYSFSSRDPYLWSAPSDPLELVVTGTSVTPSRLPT
Briefly: ELISA: GPVI dimer binding to immobilized collagenous substrates. Particulars: for Kd (monomer)/Kd (dimer): binding to collagenous substrates.

The mark [4] stands for this setting: CRP 5 μg/ml or thrombin 0.2 unit/ml, washed platelets 2.5 × 10^8 cells/ml.

In the case of “Thrombin: bovine thrombin (Sigma), platelet agonist”, in assay [1], the “% increase after activation” value came to 55%. In assay [2] (setting [4]), the “time after which dimer levels started to increase” value stood at 30 s and the “time at which dimer level reaches a maximum” value fell in the range of 4 to 5 min. Besides, in assay [2] (washed platelets 1 × 10^8 cells/ml, FITC-m-Fab-F 100 μg/ml), the “agonist concentration at which dimer level reaches a maximum” value is given as over 0.5 unit/ml.

For “GPC–(GPP)5–GAOGARGGAGPOGPEGGKGAAGPOGPO(GPP)5–GPC–NH2 [III-30A]”, in assay [3], the “Kd (monomer)/Kd (dimer)” value came out at 887.0.

In the case of “Collagen type I: Pepsin-treated bovine type I collagen from Koken”, in assay [3], the “Kd (monomer)/Kd (dimer)” value came out at 194.3. Also, the “Hill coefficient for dimer binding” value in assay [3] (mean ± S.E., n = 4-12 as printed) is on record as 1.14 ± 0.07.
